Assay results: patent US6355799B1, “Substituted benzene compounds, process for their preparation, and herbicidal and defoliant compositions containing them” (ISK Americas Incorporated, priority 1997, dated 2002)

How the values were obtained:
Type in all cases: in vivo
[1] = tested on: field corn (Zea mays L., var. Dekalb 535, CORN); test: Post-emerge test, crop safety; details: phytotoxicity rating 0-100 (0 no damage, 100 complete death), 14 days after application
In short: (§1)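 Compounds in acetone were track-sprayed at 187 l/ha, 15–1000 g ai/ha, onto sandy loam pots. Pre-emerge seeds were sown one day before spraying, with surface watering afterwards. Post-emerge plants were at the 2–3 leaf stage and sprayed with 0.25% v/v non-ionic surfactant. Injury was rated 0–100 at 14 days.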

[2] = tested on: upland rice (Oryza sp., var. Tebonnet, RICE); test: Post-emerge test, crop safety; details: phytotoxicity rating 0-100 (0 no damage, 100 complete death), 14 days after application
In short: as §1

[3] = tested on: large crabgrass (Digitaria sanguinalis, DIGSA); test: Post-emerge test, greenhouse herbicide activity screening; details: phytotoxicity rating 0-100 (0 no damage, 100 complete death), 14 days after application
In short: (§2)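 Rating: 0–100 visual injury, 14 DAA. Application: acetone, 187 l/ha, 15–1000 g ai/ha, flat-fan track sprayer with nozzle 40–45 cm above soil or canopy. Post-emerge runs used 0.25% v/v surfactant on 2–3 leaf plants.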

[4] = tested on: green foxtail (Setaria viridis, SETVI); test: as above; details: phytotoxicity rating 0-100 (0 no damage, 100 complete death), 14 days after application
In short: as §2

[5] = tested on: barnyardgrass (Echinochloa crus-galli, ECHCG); test: as above; details: phytotoxicity rating 0-100 (0 no damage, 100 complete death), 14 days after application
In short: as §2

[6] = tested on: ivyleaf morningglory (Ipomoea hederacea, IPOHE); test: as above; details: phytotoxicity rating 0-100 (0 no damage, 100 complete death), 14 days after application
In short: as §2

[7] = tested on: johnsongrass (Sorghum halepense, SORHA); test: as above; details: phytotoxicity rating 0-100 (0 no damage, 100 complete death), 14 days after application
In short: as §2

[8] = tested on: lambsquarters (Chenopodium album, CHEAL); test: as above; details: phytotoxicity rating 0-100 (0 no damage, 100 complete death), 14 days after application
In short: as §2

[9] = tested on: redroot pigweed (Amaranthus retroflexus, AMARE); test: as above; details: phytotoxicity rating 0-100 (0 no damage, 100 complete death), 14 days after application
In short: as §2

[10] = tested on: velvetleaf (Abutilon theophrasti, ABUTH); test: as above; details: phytotoxicity rating 0-100 (0 no damage, 100 complete death), 14 days after application
In short: as §2

[11] = tested on: sicklepod (Cassia obtusifolia, CASOB); test: as above; details: phytotoxicity rating 0-100 (0 no damage, 100 complete death), 14 days after application
In short: as §2

[12] = tested on: large crabgrass (Digitaria sanguinalis, DIGSA); test: Pre-emerge test, greenhouse herbicide activity screening; details: pre-emerge, rated 14 days after application, 0 = no damage, 100 = complete death
In short: as §1

[13] = tested on: green foxtail (Setaria viridis, SETVI); test: as above; details: pre-emerge, rated 14 days after application, 0 = no damage, 100 = complete death
In short: as §1

[14] = tested on: barnyardgrass (Echinochloa crus-galli, ECHCG); test: as above; details: pre-emerge, rated 14 days after application, 0 = no damage, 100 = complete death
In short: as §1

[15] = tested on: ivyleaf morningglory (Ipomoea hederacea, IPOHE); test: as above; details: pre-emerge, rated 14 days after application, 0 = no damage, 100 = complete death
In short: as §1

[16] = tested on: johnsongrass (Sorghum halepense, SORHA); test: as above; details: pre-emerge, rated 14 days after application, 0 = no damage, 100 = complete death
In short: as §1

[17] = tested on: lambsquarters (Chenopodium album, CHEAL); test: as above; details: pre-emerge, rated 14 days after application, 0 = no damage, 100 = complete death
In short: as §1

[18] = tested on: velvetleaf (Abutilon theophrasti, ABUTH); test: as above; details: pre-emerge, rated 14 days after application, 0 = no damage, 100 = complete death
In short: as §1

[19] = tested on: sicklepod (Cassia obtusifolia, CASOB); test: as above; details: pre-emerge, rated 14 days after application, 0 = no damage, 100 = complete death
In short: as §1

[20] = tested on: field corn (Zea mays L., var. Dekalb 535, CORN); test: Pre-emerge test, crop safety; details: pre-emerge, rated 14 days after application, 0 = no damage, 100 = complete death
In short: (§3)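 Fourteen days after spraying, crop and weed injury was graded visually from 0, no effect, to 100, every plant dead. Test substances were dissolved in acetone and applied at 15–1000 g ai/ha with a flat-fan nozzle. Application was either pre-emergence, one day after sowing, or post-emergence at the 2–3 leaf stage.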

[21] = tested on: upland rice (Oryza sp., var. Tebonnet, RICE); test: Pre-emerge test, crop safety; details: pre-emerge, rated 14 days after application, 0 = no damage, 100 = complete death
In short: as §3

[22] = tested on: redroot pigweed (Amaranthus retroflexus, AMARE); test: Pre-emerge test, greenhouse herbicide activity screening; details: pre-emerge, rated 14 days after application, 0 = no damage, 100 = complete death
In short: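 Herbicidal damage is scored 0 (none) to 100 (complete plant death) two weeks after a simulated field spray. Rates span 15–1000 g ai/ha, delivered in acetone at 187 l/ha. For post-emergence treatments, plants have 2–3 leaves and the spray carries 0.25% v/v non-ionic surfactant.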

Cn1c(C(F)(F)F)cc(=O)n(-c2c(F)cc(Cl)c(OCC#N)c2N)c1=O [Compound 1-18]
Post-emerge Herbicidal Activity CORN (crop damage) ([1]; 63 g ai/ha): 0 | Post-emerge Herbicidal Activity CORN (crop damage) ([1]; 250 g ai/ha): 0 | Post-emerge Herbicidal Activity RICE (crop damage) ([2]; 63 g ai/ha): 0 | Post-emerge Herbicidal Activity RICE (crop damage) ([2]; 250 g ai/ha): 0 | Post-emerge Herbicidal Activity DIGSA ([3]; 63 g ai/ha): 50 | Post-emerge Herbicidal Activity DIGSA ([3]; 250 g ai/ha): 50 | Post-emerge Herbicidal Activity SETVI ([4]; 63 g ai/ha): 70 | Post-emerge Herbicidal Activity SETVI ([4]; 250 g ai/ha): 70 | Post-emerge Herbicidal Activity ECHCG ([5]; 63 g ai/ha): 0 | Post-emerge Herbicidal Activity ECHCG ([5]; 250 g ai/ha): 0 | Post-emerge Herbicidal Activity IPOHE ([6]; 63 g ai/ha): 80 | Post-emerge Herbicidal Activity IPOHE ([6]; 250 g ai/ha): 100 | Post-emerge Herbicidal Activity SORHA ([7]; 63 g ai/ha): 50 | Post-emerge Herbicidal Activity SORHA ([7]; 250 g ai/ha): 50 | Post-emerge Herbicidal Activity CHEAL ([8]; 63 g ai/ha): 70 | Post-emerge Herbicidal Activity CHEAL ([8]; 250 g ai/ha): 100 | Post-emerge Herbicidal Activity AMARE ([9]; 63 g ai/ha): 70 | Post-emerge Herbicidal Activity AMARE ([9]; 250 g ai/ha): 100 | Post-emerge Herbicidal Activity ABUTH ([10]; 63 g ai/ha): 100 | Post-emerge Herbicidal Activity ABUTH ([10]; 250 g ai/ha): 100 | Post-emerge Herbicidal Activity CASOB ([11]; 63 g ai/ha): 30 | Post-emerge Herbicidal Activity CASOB ([11]; 250 g ai/ha): 95 | Pre-emerge Herbicidal Activity DIGSA (phytotoxicity rating, scale 0-100) ([12]; 63 g ai/ha): 70 | Pre-emerge Herbicidal Activity DIGSA (phytotoxicity rating, scale 0-100) ([12]; 250 g ai/ha): 90 | Pre-emerge Herbicidal Activity SETVI (phytotoxicity rating, scale 0-100) ([13]; 63 g ai/ha): 95 | Pre-emerge Herbicidal Activity SETVI (phytotoxicity rating, scale 0-100) ([13]; 250 g ai/ha): 99 | Pre-emerge Herbicidal Activity ECHCG (phytotoxicity rating, scale 0-100) ([14]; 63 g ai/ha): 0 | Pre-emerge Herbicidal Activity ECHCG (phytotoxicity rating, scale 0-100) ([14]; 250 g ai/ha): 80 | Pre-emerge Herbicidal Activity IPOHE (phytotoxicity rating, scale 0-100) ([15]; 63 g ai/ha): 100 | Pre-emerge Herbicidal Activity IPOHE (phytotoxicity rating, scale 0-100) ([15]; 250 g ai/ha): 100 | Pre-emerge Herbicidal Activity SORHA (phytotoxicity rating, scale 0-100) ([16]; 63 g ai/ha): 70 | Pre-emerge Herbicidal Activity SORHA (phytotoxicity rating, scale 0-100) ([16]; 250 g ai/ha): 100 | Pre-emerge Herbicidal Activity CHEAL (phytotoxicity rating, scale 0-100) ([17]; 63 g ai/ha): 100 | Pre-emerge Herbicidal Activity CHEAL (phytotoxicity rating, scale 0-100) ([17]; 250 g ai/ha): 100 | Pre-emerge Herbicidal Activity ABUTH (phytotoxicity rating, scale 0-100) ([18]; 63 g ai/ha): 100 | Pre-emerge Herbicidal Activity ABUTH (phytotoxicity rating, scale 0-100) ([18]; 250 g ai/ha): 100 | Pre-emerge Herbicidal Activity CASOB (phytotoxicity rating, scale 0-100) ([19]; 63 g ai/ha): 70 | Pre-emerge Herbicidal Activity CASOB (phytotoxicity rating, scale 0-100) ([19]; 250 g ai/ha): 100 | Pre-emerge crop damage CORN (phytotoxicity rating, scale 0-100) ([20]; 63 g ai/ha): 40 | Pre-emerge crop damage CORN (phytotoxicity rating, scale 0-100) ([20]; 250 g ai/ha): 90 | Pre-emerge crop damage RICE (phytotoxicity rating, scale 0-100) ([21]; 63 g ai/ha): 30 | Pre-emerge crop damage RICE (phytotoxicity rating, scale 0-100) ([21]; 250 g ai/ha): 70 | Pre-emerge Herbicidal Activity AMARE (phytotoxicity rating, scale 0-100) ([22]; 63 g ai/ha): 100 | Pre-emerge Herbicidal Activity AMARE (phytotoxicity rating, scale 0-100) ([22]; 250 g ai/ha): 100
